Laboratory results as given in patent US11447504B2, “Macrocyclic chlorine substituted indole derivatives” (Bayer Aktiengesellschaft, priority 2017, dated 2022).
Counter-ions that a name gives are not always drawn. Like-named read-outs stand apart in the source and are kept apart here.

Columns and labels:
[1] = tested on: AMO-1; experiment: Antiproliferation assay 7, AMO-1; type: cell-based; details: AMO-1 cells, CellTiter-Glo, read-out: Antiproli AMO-1 IC50 median
In short: (§1)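 Anti-proliferative effect is determined from CellTiter-Glo signal after a 72-hour incubation at 37° C, with a time-zero reference plate measured in parallel.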

[2] = tested on: MV-4-11; experiment: Antiproliferation assay 7, MV-4-11; type: cell-based; details: MV-4-11 cells, CellTiter-Glo, read-out: Antiproli MV-4-11 IC50 median
Experimental: (§2) Assessment of the Anti-Proliferative Effect of Compounds in Different Cell Lines
(§3) The impact of compounds on the proliferation of different cell lines was assessed using the CellTiter-Glo® Luminescent Cell Viability reagent from Promega (G7573).
(§4) In parallel, cells were plated in a reference (day 0) plate for time zero determination.
(§5) Rim wells were excluded. The cells were incubated for 72 hours in a humidified incubator at 37° C. The day 0 plate was measured by adding 30 μL/well of CTG solution (CellTiter-Glo® Luminescent Cell Viability reagent, Promega G7573) to time zero wells in the reference plate followed by a 10 minutes incubation and luminescence reading at 0.1 ms. using the PHERAstar FS microplate reader (BMG Labtech).
(§6) After 72 hours incubation, the treated plates were measured in the same way as the day 0 plate mentioned above.

[3] = tested on: SUDHL5; experiment: Induction of cytotoxicity (Assay 6), SUDHL5
[4] = tested on: SUDHL5; experiment: Antiproliferation assay 7, SUDHL5; type: cell-based; details: SUDHL5 cells, CellTiter-Glo, read-out: Antiproli SUDHL5 IC50 (median)
In short: as §1

[5] = tested on: HMC-1-8; experiment: Antiproliferation assay 7, HMC-1-8; type: cell-based; details: 72 h, HMC-1-8 cells, CellTiter-Glo, read-out: Antiproli HMC-1-8 IC50 median
Experimental: as §2, §3, §4, §5, §6

[6] = tested on: SUDHL5; experiment: Induction of caspase-3/7 activity (Assay 4), SUDHL5; type: cell-based; details: SUDHL5 cells
In short: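 DLBCL cells treated with compounds for 3 hours at 37° C. Caspase-3/7 activity measured by Caspase-Glo 3/7 luminescence, with medium-only background subtracted.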

[7] = tested on: SUDHL10; experiment: Induction of cytotoxicity (Assay 6), SUDHL10
Experimental: Assay 6 Induction of Cytotoxicity Upon Treatment of Cells with Selected Compounds
Therefore, cytotoxicity assays were run in parallel in SUDHL5 and SUDHL10 cells.
The different cell lines were plated in culture medium (RPMI 1640 [GIBCO #22400-089]supplemented with 10% Fetal Bovine Serum) at a density of 3,300 cells in 30 μL/well in a sterile, solid black, flat bottom, polystyrene, TC-treated 384-well microplate (Corning #3571) using Multidrop Combi Reagent Dispenser. As a control, medium without cells was also added to the plate. Cells were incubated in a humidified incubator at 37° C. overnight. […] Rim wells were excluded. The cells were incubated for 5 hours in a humidified incubator at 37° C. After this incubation, 30 μL of CellTiter-Glo® Luminescent Cell Viability reagent (Promega, G7573) was added to each well using the Multidrop Combi Reagent Dispenser, followed by 15 minutes incubation on a shaker at room temperature. Finally, luminescence was read at 0.1 ms, with a gain of 3000 using the PHERAstar FS microplate reader (BMG Labtech).

[8] = tested on: SUDHL10; experiment: Induction of caspase-3/7 activity (Assay 4), SUDHL10; type: cell-based; details: SUDHL10 cells
In short: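 SUDHL10 DLBCL cells treated with compounds for 3 hours at 37 °C in a humidified incubator. Caspase-3/7 activity read with Caspase-Glo 3/7 luminescent reagent. Medium-only background subtracted from all values.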

[9] = molecular target: MCL-1 (Homo sapiens (Human), UniProt Q07820, K194A/K197A/R201A); experiment: Protein-protein interaction assay MCL-1/Noxa BH3 peptide (MCL-1 Assay, TR-FRET); type: binding; details: read-out: MCL-1 Assay IC50 (median)
Experimental: The dose-dependent inhibition by the compounds described in this invention of the interaction between MCL-1 and the BH3 domain of Noxa (both human) was determined using a steady state binding competition assay with time-resolved fluorescence energy transfer (TR-FRET) readout. […] The MBP-MCL-1 was purchased from Beryllium (Bedford, Mass., USA). The expression and purification of this protein construct has been described elsewhere (DOI:10.1371/journal.pone.0125010). The Noxa BH3-derived peptide can be obtained from e.g. Biosyntan (Berlin, Germany).
For that, 100-fold concentrated DMSO solutions were prepared by serial dilutions (1:3.4) of a 2 mM stock solution in a clear, 384-well microtiter plate (Greiner Bio-One, Frickenhausen, Germany). From there, 50 nl were transferred in a dark test plate (Greiner Bio-One, Frickenhausen, Germany). […] This was followed by a 10-minute incubation step at 22° C. for pre-equilibration of the putative complex between MBP-MCL-1 and the compounds.
The mixture was incubated in the dark for one hour at 22° C. and then overnight at 4° C.
The resulting data (ratio) were normalized, taking 0% inhibition as the mean value of control measurements (usually 32 data points) where all reagents were included. In this case 50 nl DMSO were used instead of compounds. […] IC50 values were determined by regression analysis based on a 4 parameter equation (minimum, maximum, IC50, Hill; Y=Max+(Min−Max)/(1+(X/IC50)^Hill) using the Screener Software (Genedata).

[10] = read-out: Cytotox SUDHL5 IC50 (median), SUDHL5 cells, 5 hours, CellTiter-Glo
[11] = 3 hours, Caspase-Glo 3/7, read-out: Caspase SUDHL5 EC50 (median)
[12] = read-out: Cytotox SUDHL10 IC50 (median), SUDHL10 cells, 5 hours, CellTiter-Glo
[13] = 3 hours, Caspase-Glo 3/7, read-out: Caspase SUDHL10 EC50 (median)

Sequence of MCL-1 (Q07820 whole entry K194A/K197A/R201A, looked up, the tested form may be a part): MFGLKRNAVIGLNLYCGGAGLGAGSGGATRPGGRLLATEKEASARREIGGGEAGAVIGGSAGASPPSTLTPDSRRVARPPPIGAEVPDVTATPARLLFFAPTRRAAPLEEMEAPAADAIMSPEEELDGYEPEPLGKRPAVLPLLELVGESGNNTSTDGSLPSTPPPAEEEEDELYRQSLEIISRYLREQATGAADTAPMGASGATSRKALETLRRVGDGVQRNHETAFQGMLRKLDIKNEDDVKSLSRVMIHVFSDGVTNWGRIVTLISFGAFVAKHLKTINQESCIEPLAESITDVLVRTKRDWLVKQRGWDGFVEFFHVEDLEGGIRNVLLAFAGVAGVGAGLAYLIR

Structure (SMILES) | IC50 ([1]; 72 hours) | IC50 ([2]; 72 hours) | IC50 [3, 10] | IC50 ([4]; 72 hours) | IC50 [5] | EC50 [6, 11] | IC50 [7, 12] | EC50 [8, 13] | IC50 [9] | IC50 ([1]; Homo sapiens, AMO1, 72 h) | IC50 ([7]; Homo sapiens, SU-DHL10, 5 h, read-out: Cytotox SUDHL10 IC50 (median), SUDHL10 cells, 5 hours, CellTiter-Glo) | IC50 ([2]; Homo sapiens, MV4-11, 72 h) | IC50 ([3]; Homo sapiens, SU-DHL-5, 5 h, read-out: Cytotox SUDHL5 IC50 (median), SUDHL5 cells, 5 hours, CellTiter-Glo) | EC50 ([8]; Homo sapiens, SU-DHL10, 3 h, Caspase-Glo 3/7, read-out: Caspase SUDHL10 EC50 (median)) | IC50 ([4]; Homo sapiens, SU-DHL-5, 72 h) | EC50 ([6]; Homo sapiens, SU-DHL-5, 3 h, Caspase-Glo 3/7, read-out: Caspase SUDHL5 EC50 (median))
CCc1nn(C)c2c1-c1c(Cl)ccc3c(CCCOc4cccc5cc(F)ccc45)c(C(=O)O)n(c13)CCCCOC2 (single isomer, unassigned; enantiomer 1) [Example 34, (+)-4-chloro-3-ethyl-7-{3-[(6-fluoronaphthalen-1-yl)oxy]propyl}-1-methyl-1,10,11,12,13,15-hexahydropyrazolo[4′,3′:9,10][1,6]oxazacycloundecino[8,7,6-hi]indole-8-carboxylic Acid (Enantiomer 1)] | 1410 nM | 1260 nM | 530 nM | 620 nM | 2030 nM | 380 nM | – | – | – | – | – | – | – | – | – | –
CCc1nn(C)c2c1-c1c(Cl)ccc3c(CCCOc4cccc5cc(F)ccc45)c(C(=O)O)n(c13)CCCCN(C)C2 (single isomer, unassigned; enantiomer 1) [Example 40, 4-chloro-3-ethyl-7-{3-[(6-fluoronaphthalen-1-yl)oxy]propyl}-1,14-dimethyl-10,11,12,13,14,15-hexahydro-1H-pyrazolo[3′,4′:8,9][1,6]diazacycloundecino[10,11,1-hi]indole-8-carboxylic Acid (Enantiomer 1)] | 539 nM | 95.5 nM | 110 nM | 150 nM | 695 nM | 140 nM | 290 nM | 310 nM | – | – | – | – | – | – | – | –
CCc1nn(CCN2CCOCC2)c2c1-c1c(Cl)ccc3c(CCCOc4cccc5ccccc45)c(C(=O)O)n(c13)C/C=C\CN(C)C2 (single isomer, unassigned; enantiomer 1) [Example 43, (11Z)-4-chloro-3-ethyl-14-methyl-1-[2-(morpholin-4-yl)ethyl]-7-{3-[(naphthalen-1-yl)oxy]propyl}-10,13,14,15-tetrahydro-1H-pyrazolo[3′,4′:8,9][1,6]diazacycloundecino[10,11,1-hi]indole-8-carboxylic Acid-Ammonia Salt (Enantiomer 1)] | 1130 nM | 1380 nM | 700 nM | 950 nM | 2060 nM | 620 nM | 1200 nM | 1600 nM | – | – | – | – | – | – | – | –
CCc1c2c(nn1C)CN(C)CCCCn1c(C(=O)O)c(CCCOc3cccc4cc(F)ccc34)c3ccc(Cl)c-2c31 (single isomer, unassigned; enantiomer 1) [Example 6, 4-chloro-3-ethyl-7-{3-[(6-fluoronaphthalen-1-yl)oxy]propyl}-2,14-dimethyl-10,11,12,13,14,15-hexahydro-2H-pyrazolo[3′,4′:8,9][1,6]diazacycloundecino[10,11,1-hi]indole-8-carboxylic Acid (Enantiomer 1)] | 369 nM | 79.4 nM | 190 nM | 230 nM | 1210 nM | 130 nM | 350 nM | 340 nM | – | – | – | – | – | – | – | –
Cc1c2c(nn1C)COCC1CC1Cn1c(C(=O)O)c(CCCOc3cccc4ccccc34)c3ccc(Cl)c-2c31 (single isomer, unassigned; stereoisomer 2) [Example 66, (9aR,10aS or 9aS, 10aR)-3-chloro-4,5-dimethyl-14-{3-[(naphthalen-1-yl)oxy]propyl}-5,7,9a, 10,10a, 11-hexahydro-9H-cyclopropa[3,4]pyrazolo[4′,3′:9,10][1,6]oxazacycloundecino-[8,7,6-hi]indole-13-carboxylic Acid—Stereoisomer 2] | 1520 nM | – | 910 nM | – | – | 550 nM | 1400 nM | 3500 nM | 1.7 nM | – | – | – | – | – | – | –
Cc1c2c(nn1C)COCCCCn1c(C(=O)O)c(CCCOc3cccc4cc(F)ccc34)c3ccc(Cl)c-2c31 (single isomer, unassigned; enantiomer 1) [Example 16, (−)-4-chloro-7-{3-[(6-fluoronaphthalen-1-yl)oxy]propyl}-2,3-dimethyl-2,10,11,12,13,15-hexahydropyrazolo[4′,3′:9,10][1,6]oxazacycloundecino[8,7,6-hi]indole-8-carboxylic Acid (Enantiomer 1)] | – | – | – | – | 1250 nM | – | – | – | – | 519 nM | 660 nM | 524 nM | 220 nM | 380 nM | 210 nM | 150 nM
CCc1nn(CCN2CCOCC2)c2c1-c1c(Cl)ccc3c(CCCOc4cccc5ccccc45)c(C(=O)O)n(c13)CCCCN(C)C2 (single isomer, unassigned; enantiomer 1) [Example 46, 4-chloro-3-ethyl-14-methyl-1-[2-(morpholin-4-yl)ethyl]-7-{3-[(naphthalen-1-yl)oxy]propyl}-10,11,12,13,14,15-hexahydro-1H-pyrazolo[3′,4′:8,9][1,6]diazacycloundecino[10,11,1-hi]indole-8-carboxylic Acid (Enantiomer 1)] | 180 nM | 490 nM | 180 nM | 200 nM | 819 nM | 160 nM | 300 nM | 400 nM | – | – | – | – | – | – | – | –
CCc1c2c(nn1C)CN(C)CCCCn1c(C(=O)O)c(CCCOc3cccc4ccccc34)c3ccc(Cl)c-2c31 (single isomer, unassigned; enantiomer 1) [Example 23, 4-chloro-3-ethyl-2,14-dimethyl-7-[3-(naphthalen-1-yloxy)propyl]-10,11,12,13,14,15-hexahydro-2H-pyrazolo[3′,4′:8,9][1,6]diazacycloundecino[10,11,1-hi]indole-8-carboxylic Acid (Enantiomer 1)] | – | 387 nM | 140 nM | – | 5160 nM | 92 nM | 310 nM | – | – | 613 nM | – | – | – | – | – | –
CCc1c2c(nn1C)COCCCCn1c(C(=O)O)c(CCCOc3cccc4cc(F)ccc34)c3ccc(Cl)c-2c31 (single isomer, unassigned; enantiomer 1) [Example 37, (+)-4-chloro-3-ethyl-7-{3-[(6-fluoronaphthalen-1-yl)oxy]propyl}-2-methyl-2,10,11,12,13,15-hexahydropyrazolo[4′,3′:9,10][1,6]oxazacycloundecino[8,7,6-hi]indole-8-carboxylic acid-N-ethylethanamine Salt (Enantiomer 1)] | 363 nM | 377 nM | 200 nM | 280 nM | 1130 nM | 170 nM | – | – | – | – | – | – | – | – | – | –
